This is an account of results in US20240140958A1, “FUSED QUADRACYCLIC COMPOUNDS, COMPOSITIONS AND USES THEREOF” (Tabomedex Biosciences, Inc., priority 2021, published 2024).

SMILES strings stand for the structures. A value given as a limit tells only on which side of the number the result lay.

Assay [1] deals with T1, MAPKAPK2 Recombinant Human Protein (Homo sapiens, UniProt P49137).
T1 construct: purchased ThermoFisher pv3317
As to the kind of experiment: MK2 kinase assay (Z'-LYTE kinase assay kit). The following applies: inhibition of MK2 biochemical activity; 90 min incubation at room temperature. Here is the method: Materials and Reagents for Measuring Inhibition of MK2 Biochemical Activity: • 1) Assay plate: 384 Well Low Volume Black Round Bottom Polystyrene NBS Microplate (Corning, Cat.No. 4514) • 2) MK2 kinase assay kit: Z' LYTE KINASE ASSAY KIT (ThermoFisher, Cat.No. pv3177) • 3) MAPKAPK2 Recombinant Human Protein (ThermoFisher, Cat.No. pv3317) • 4) DMSO (Vetec, Cat.No. V900090) • 5) DTT (Sigma, Cat.No. D0632)
MK2 Kinase Assay Procedure: • 1) Dispense 5 μl Kinase/Peptide Mixture to each wells of 384-well plate • 2) Add 2.5 μl 4× Test Compound to each well • 3) Add 2.5 μl 4× ATP Solution to each well • 4) After 90 minutes incubation at room temperature, add 5 μl Development Solution to each well • 5) After 60 minutes incubation at room temperature, add 5 μl stop Solution to each well • 6) Measure the Coumarin (Ex. 400 nm, Em. 445 nm) and Fluorescein (Ex. 400 nm, Em. 520 nm) emission signals on an Envision plate reader (PerkinElmer)

In the next assay the test system is THP-1 cells. As to the kind of experiment: THP-1 cell assay: LPS-stimulated pSer78-Hsp27 ELISA. It counts as cell-based. The following applies: Homo sapiens, PMA-differentiated THP-1 cells, compound 60 min before 20 ng/mL LPS for 30 min. The text has this:
Materials and Reagents for Measuring Activity in THP-1 Cells: • 1) THP-1 cells (Cell bank of Shanghai) • 2) PMA (Sigma, Cat.No. P1585) • 3) LPS (Sigma, Cat.No. L4516) • 4) 96-well tissue-culture treated plate (Grenier, Cat.No. 655180) • 5) FBS (Thermofisher, Cat.No. 10100147) • 6) Complete EDTA-free protease inhibitor Cocktail (Roche, Cat.No. 4693132001) • 7) PhosSTOP (Roche, Cat.No. 4906845001) • 8) Phosphor-Hsp27 (Ser78) Sandwich Elisa kit (CST, Cat.No. 7295)
Cell Assay Procedure: • 1) Day 0: THP-1 cells are seeded at 50K/well in complete media (1640+10% FBS+50 μM β-ME)+20 ng/mL PMA in 96-well plate • 2) Day 1: PMA containing media is removed after 24 h incubation (37° C./5% CO2), and replaced with complete growth media. Cells are incubated an additional 48 h to recover. • 3) Day 3: Cells are incubated with or without compounds at indicated concentrations for 60 min, prior to addition of 20 ng/mL LPS. Cells are stimulated for 30 min with LPS, washed 1× with ice cold PBS, lysed on ice in Lysis buffer provided in ELISA kit with Roche protease & phosphatase inhibitors. Extracts are clarified by refrigerated centrifugation & stored at −80° C. until pHsp27/total Hsp27 ELISAs • 4) Day 3 or Day 4: Cell Signaling Technology ELISA is run for pSer78-Hsp27 on lysates diluted to approximately 2.5 μg/well. • 5) The absorbance at 450 nm was read in a SpectraMax plus plate reader (Molecular Devices). Data was processed using GraphPad prism 8.0.

T1 sequence (P49137 whole entry): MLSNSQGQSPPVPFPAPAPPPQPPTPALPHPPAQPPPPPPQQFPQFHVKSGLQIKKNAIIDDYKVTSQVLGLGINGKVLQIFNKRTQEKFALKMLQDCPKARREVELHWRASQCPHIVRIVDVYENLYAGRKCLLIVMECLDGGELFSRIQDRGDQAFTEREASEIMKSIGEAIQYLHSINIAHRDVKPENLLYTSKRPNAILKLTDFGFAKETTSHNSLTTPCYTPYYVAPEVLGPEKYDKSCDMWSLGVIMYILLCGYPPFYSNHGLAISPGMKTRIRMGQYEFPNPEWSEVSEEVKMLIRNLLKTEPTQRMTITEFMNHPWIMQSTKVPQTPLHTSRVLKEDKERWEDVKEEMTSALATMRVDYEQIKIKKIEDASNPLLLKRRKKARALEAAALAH

Take `CC(C)NC[C@H]1CC(=O)N(c2ccc3c(c2)Cn2cc(-c4ccc(C#N)cc4)cc2-c2nccn2-3)C1` [Example 12]: the IC50 – broadly, the concentration that gives 50% inhibition – in assay [1] was less than 50 nM; in the assay with THP-1 cells it was 100 to 200 nM.
With `CC(C)(C)NC[C@H]1CC(=O)N(c2ccc3c(c2)Cn2cc(-c4ccc(C#N)cc4)cc2-c2nccn2-3)C1` [Example 13], the IC50 in assay [1] was less than 50 nM; in the assay with THP-1 cells, 100 to 200 nM.
For `N#Cc1ccc(-c2cc3n(c2)Cc2cc(N4C[C@@H](CNC5COC5)CC4=O)ccc2-n2ccnc2-3)cc1` [Example 14], in that order: 50 to 100 nM and 100 to 200 nM.
As to `N#Cc1ccc(-c2cc3n(c2)Cc2cc(N4C[C@@H](CNC5CC5)CC4=O)ccc2-n2ccnc2-3)cc1` [Example 15], the IC50 (in assay [1]; with THP-1 cells) was less than 50 nM each time.
For `N#Cc1ccc(-c2cc3n(c2)Cc2cc(N4C[C@@H](CNC5(CO)CC5)CC4=O)ccc2-n2ccnc2-3)cc1` [Example 16], the IC50 in assay [1] was 50 to 100 nM; in the assay with THP-1 cells it was 400 to 500 nM.
As to `CN(C)C[C@@H]1CC(=O)N(c2ccc3c(c2)Cn2cc(-c4ccc(C#N)cc4)cc2-c2nccn2-3)C1` [Example 17, (S)-4-(7-(4-((Dimethylamino)methyl)-2-oxopyrrolidin-1-yl)-9H-benzo[e]imidazo[2,1-c]pyrrolo[1,2-a][1,4]diazepin-12-yl)benzonitrile], the results for the IC50 (in assay [1]; in the assay with THP-1 cells) were 50 to 100 nM and 200 to 300 nM, respectively.
`CC1(C)CCN1C[C@H]1CC(=O)N(c2ccc3c(c2)Cn2cc(-c4ccc(C#N)cc4)cc2-c2nccn2-3)C1` [Example 19]: the IC50 in assay [1] is less than 50 nM; in the assay with THP-1 cells, 50 to 100 nM.
The like results for `N#Cc1ccc(-c2cc3n(c2)Cc2cc(N4CC5(CNC5)CC4=O)ccc2-n2ccnc2-3)cc1` [Example 22, 4-(7-(7-Oxo-2,6-diazaspiro[3.4]octan-6-yl)-9H-benzo[e]imidazo[2,1-c]pyrrolo [1,2-a][1,4]diazepin-12-yl)benzonitrile] were, in that order, less than 50 nM and 1000 to 1500 nM.
The like results for `CN1CC2(CC(=O)N(c3ccc4c(c3)Cn3cc(-c5ccc(C#N)cc5)cc3-c3nccn3-4)C2)C1` [Example 23, 4-(7-(2-Methyl-7-oxo-2,6-diazaspiro[3.4]octan-6-yl)-9H-benzo[e]imidazo [2,1-c]pyrrolo[1,2-a][1,4]diazepin-12-yl)benzonitrile] were, in that order, less than 50 nM and 200 to 300 nM.
For `CN1CC2(CCN(c3ccc4c(c3)Cn3cc(-c5ccc(C#N)cc5)cc3-c3nccn3-4)C2=O)C1` [Example 24, 4-(7-(2-Methyl-5-oxo-2,6-diazaspiro[3.4]octan-6-yl)-911-benzo[e]imidazo [2,1-c]pyrrolo[1,2-a][1,4]diazepin-12-yl)benzonitrile], in that order: less than 50 nM and less than 50 nM.
With `CN(C)[C@H]1CCN(c2ccc3c(c2)Cn2cc(-c4ccc(C#N)cc4)cc2-c2nccn2-3)C1=O` [Example 25, (S)-4-(7-(3-(Dimethylamino)-2-oxopyrrolidin-1-yl)-9H-benzo[e]imidazo [2,1-c]pyrrolo[1,2-a][1,4]diazepin-12-yl)benzonitrile], the IC50 was 50 to 100 nM in assay [1] and 300 to 400 nM with THP-1 cells.
Turning to `N#Cc1ccc(-c2cc3n(c2)Cc2cc(N4C[C@@H](CN5CCC(F)C5)CC4=O)ccc2-n2ccnc2-3)cc1` (stereo partly drawn) [Example 26, 4-(7-((4R)-4-((3-Fluoropyrrolidin-1-yl)methyl)-2-oxopyrrolidin-1-yl)-9H-benzo[e]imidazo[2,1-c]pyrrolo[1,2-a][1,4]diazepin-12-yl)benzonitrile], the IC50 was 50 to 100 nM in assay [1] and 100 to 200 nM in the assay on THP-1 cells.
Consider `N#Cc1ccc(-c2cc3n(c2)Cc2cc(N4C[C@@H](CN5CCC5)CC4=O)ccc2-n2ccnc2-3)cc1` [Example 27], for which the IC50 (in assay [1]; with THP-1 cells) was less than 50 nM throughout.
For the compound `N#Cc1ccc(-c2cc3n(c2)Cc2cc(N4C[C@@H](CN5CC(F)C5)CC4=O)ccc2-n2ccnc2-3)cc1` [Example 28], the IC50 was less than 50 nM in assay [1] and 500 to 1000 nM in the assay with THP-1 cells.
Turning to `N#Cc1ccc(-c2cc3n(c2)Cc2cc(N4C[C@@H](CN5CC(O)C5)CC4=O)ccc2-n2ccnc2-3)cc1` [Example 29], the IC50 in assay [1] was less than 50 nM; in the assay on THP-1 cells, 50 to 100 nM.
On to `CN(C)CC1(C)CC(=O)N(c2ccc3c(c2)Cn2cc(-c4ccc(C#N)cc4)cc2-c2nccn2-3)C1` (centres unmarked) [Example 33, 4-(7-(4-((Dimethylamino)methyl)-4-methyl-2-oxopyrrolidin-1-yl)-9H-benzo [e]imidazo[2,1-c]pyrrolo[1,2-a][1,4]diazepin-12-yl)benzonitrile], for which the IC50 in assay [1] was less than 50 nM; in the assay with THP-1 cells it was 400 to 500 nM.
As for `CN(C)CC1CCN(c2ccc3c(c2)Cn2cc(-c4ccc(C#N)cc4)cc2-c2nccn2-3)C1=O` (centres unmarked) [Example 34, 4-(7-(3-((Dimethylamino)methyl)-2-oxopyrrolidin-1-yl)-9H-benzo[e]imidazo [2,1-c]pyrrolo[1,2-a][1,4]diazepin-12-yl)benzonitrile], the IC50 (in assay [1]; in the assay on THP-1 cells) was less than 50 nM throughout.
Take `CN(CCO)CC1CCN(c2ccc3c(c2)Cn2cc(-c4ccc(C#N)cc4)cc2-c2nccn2-3)C1=O` (centres unmarked) [Example 37]: the IC50 (in assay [1]; in the assay with THP-1 cells) was 50 to 100 nM in each case.
For the compound `CC(C)(N)C[C@H]1CCN(c2ccc3c(c2)Cn2cc(-c4ccc(C#N)cc4)cc2-c2nccn2-3)C1=O` [Example 43, (R)-4-(7-(3-(2-Amino-2-methylpropyl)-2-oxopyrrolidin-1-yl)-9H-benzo[e]imidazo[2,1-c]pyrrolo[1,2-a][1,4]diazepin-12-yl)benzonitrile], the IC50 in assay [1] is less than 50 nM; in the assay on THP-1 cells, 300 to 400 nM.
The like results for `CN(C)C[C@H]1[C@@H]2CN(c3ccc4c(c3)Cn3cc(-c5ccc(C#N)cc5)cc3-c3nccn3-4)C(=O)[C@H]12` [Example 46] were, in that order, less than 50 nM and 200 to 300 nM.
Take `CN(C)CC1CC12CCN(c1ccc3c(c1)Cn1cc(-c4ccc(C#N)cc4)cc1-c1nccn1-3)C2=O` (centres unmarked) [Example 47, 4-(7-(1-((Dimethylamino)methyl)-4-oxo-5-azaspiro[2.4]heptan-5-yl)-9H-benzo[e]imidazo[2,1-c]pyrrolo[1,2-a][1,4]diazepin-12-yl)benzonitrile]: the IC50 in assay [1] was less than 50 nM; in the assay with THP-1 cells it was 100 to 200 nM.
`CN(C)C[C@H]1C[C@@]12CCN(c1ccc3c(c1)Cn1cc(-c4ccc(C#N)cc4)cc1-c1nccn1-3)C2=O` [Example 48, 4-(7-((1S,3R)-1-((dimethylamino)methyl)-4-oxo-5-azaspiro[2.4]heptan-5-yl)-9H-benzo[e]imidazo[2,1-c]pyrrolo[1,2-a][1,4]diazepin-12-yl)benzonitrile]: the results for the half-maximal inhibitory concentration (IC50) (in assay [1]; in the assay on THP-1 cells) were 50 to 100 nM and 200 to 300 nM, respectively.
For the compound `N#Cc1ccc(-c2cc3n(c2)Cc2cc(N4C[C@@H](C5(N)CC5)CC4=O)ccc2-n2ccnc2-3)cc1` [Example 50], the IC50 was less than 50 nM in assay [1] and 50 to 100 nM with THP-1 cells.
For `CC(C)(N)[C@@H]1CC(=O)N(c2ccc3c(c2)Cn2cc(-c4ccc(C#N)cc4)cc2-c2nccn2-3)C1` [Example 53], in that order: less than 50 nM and 300 to 400 nM.
With `CN(C)C(C)(C)[C@H]1CC(=O)N(c2ccc3c(c2)Cn2cc(-c4ccc(C#N)cc4)cc2-c2nccn2-3)C1` [Example 54], the IC50 (in assay [1]; in the assay with THP-1 cells) was less than 50 nM throughout.
